# Data published in patent US11903959B2 (EMORY UNIVERSITY, priority 2017, dated 2024).
# Values joined by “and” are separate entries in the source; they are usually repeats but may differ in a detail not shown here. Equal values may be shown once. Read-outs that look alike come from different tables or passages of the source.
# Legend:
# [1] = system: Tacaribe virus; assay: microbe, parasite or virus in culture; assay type: cell-based; conditions: Mammarenavirus tacaribeense, Vero, Vero cells
# [2] = system: Lassa fever virus; assay: organism not typed; assay type: cell-based; conditions: Vero
# [3] = system: Lymphocytic choriomeningitis virus; assay: microbe, parasite or virus in culture; assay type: cell-based; conditions: Mammarenavirus choriomeningitidis, Vero
# [4] = system: VEEV; assay: microbe, parasite or virus in culture; assay type: cell-based; conditions: Venezuelan equine encephalitis virus
# [5] = system: WEEV; assay: microbe, parasite or virus in culture; assay type: cell-based; conditions: Western equine encephalitis virus
# [6] = system: CHIKV; assay: microbe, parasite or virus in culture; assay type: cell-based, Chikungunya virus
# [7] = system: DENV2; assay: microbe, parasite or virus in culture; assay type: cell-based; conditions: Dengue virus
# [8] = system: YFV; assay: microbe, parasite or virus in culture; assay type: cell-based; conditions: Yellow fever virus, Vero 76
# [9] = system: POWV; assay: microbe, parasite or virus in culture; assay type: cell-based; conditions: Powassan virus, BHK, BHK cells
# [10] = system: ZIKV; assay: microbe, parasite or virus in culture; assay type: cell-based; conditions: Zika virus, Vero 76
# [11] = system: Maporal virus; assay: microbe, parasite or virus in culture; assay type: cell-based
# [12] = system: MERS; assay: microbe, parasite or virus in culture; assay type: cell-based, MERS coronavirus; conditions: Middle East respiratory syndrome-related coronavirus, Vero C1008
# [13] = system: SARS; assay: microbe, parasite or virus in culture; assay type: cell-based, SARS coronavirus; conditions: Severe acute respiratory syndrome coronavirus
# [14] = system: HCoV; assay: microbe, parasite or virus in culture; assay type: cell-based; conditions: unidentified human coronavirus, Vero C1008
# [15] = system: Flu A H5N1 (High Path); assay: microbe, parasite or virus in culture; assay type: cell-based; conditions: Influenza A virus, H5N1, MDCK, MDCK cells
# [16] = system: Flu A H3N2; assay: microbe, parasite or virus in culture; assay type: cell-based, influenza A virus
# [17] = system: Flu A H5N1 (Low Path); assay: microbe, parasite or virus in culture; assay type: cell-based; conditions: Influenza A virus, H5N1, MDCK
# [18] = system: Flu B; assay: microbe, parasite or virus in culture; assay type: cell-based; conditions: Influenza B virus, MDCK
# [19] = system: NV; assay: microbe, parasite or virus in culture; assay type: cell-based; conditions: Norovirus, HG23
# [20] = system: Enterovirus-71; assay type: cell-based
# [21] = system: Enterovirus-68; assay type: cell-based
# [22] = system: Poliovirus -1; assay: microbe, parasite or virus in culture; assay type: cell-based; conditions: Enterovirus C, Vero 76, Poliovirus -1, Vero76 cells
# [23] = system: HRV-14; assay: microbe, parasite or virus in culture; assay type: cell-based
# [24] = system: RSV; assay: microbe, parasite or virus in culture; assay type: cell-based, respiratory syncytial virus
# [25] = system: CEM cells; assay type: cell-based; conditions: CEM cells (lowest of the range)
# [26] = female, DBA-1J, mouse, in vivo
# [27] = rat, in vivo, po, 50 mg/kg
# [28] = mouse, in vivo
# [29] = female, in vivo, po
# [30] = ICR (CD-1), mouse, in vivo
# [31] = system: Vero cells
# [32] = system: pestivirus and hepacivirus; conditions: Stuyver et al., Antimicrob Agents Chemother, 2003; cited from earlier work
# [33] = in vivo; conditions: ICR (CD-1), mouse, 180 mg/kg
# [34] = in vivo; conditions: dog, 140 mg/kg
# [35] = Cytotoxicity (CC50) run with antiviral assays, HG23 cells; conditions: human
# [36] = Cytotoxicity (CC50) run with antiviral assays, MA-104 cells; conditions: African green monkey, CC50, MA-104 cells, Parainfluenza and RSV table
# [37] = Plasma pharmacokinetics in mice after a single dose of EIDD-2800; conditions: ICR (CD-1), mouse, oral, 180 mg/kg
# [38] = Plasma pharmacokinetics in dogs after a single dose of EIDD-2800; conditions: dog, 140 mg/kg
compound,measurement,setting,value
"O=c1nc(NO)ccn1C1OC(CO)C(O)C1O (stereo not drawn) [EIDD-1931, 1-(3,4-dihydroxy-5-(hydroxymethyl)tetrahydrofuran-2-yl)-4-(hydroxyamino)pyrimidin-2-one]",EC50,[1],14.4 µM
same,EC50,[2],4.04 µM
same,EC90,[3],25.2 µM
same,EC90,[4]; Vero 76,800 nM
same,EC50,"[4]; Vero 76, VEEV, Vero76 cells",1280 nM
same,EC50,"[4]; Vero, VEE virus, Vero cell cytopathic effect (CPE) model",1000 nM
same,EC90,[5]; Vero 76,< 1280 nM
same,EC50,"[5]; Vero 76, WEEV, Vero76 cells",1280 nM
same,EC50,"[5]; Vero, WEE virus, Vero cell cytopathic effect (CPE) model",1360 nM
same,EC50,[6],1800 nM
same,EC50,"[6]; Chikungunya virus, Vero",1280 nM
same,EC50,"[7]; DENV2, Vero 76",14 µM
same,EC50,"[7]; DENV2, Vero 76, DENV2, Vero76 cells",12.8 µM
same,EC90,[8],26 µM
same,EC50,[9],11.2 µM
same,EC90,[10],2360 nM
same,EC50,[11],> 124 µM
same,EC50,"[11]; Maporal virus, Vero 76",84 µM
same,EC50,[12],< 800 nM
same,EC90,[12],< 800 nM
same,EC90,[13]; Vero 76,560 nM
same,EC90,[13]; Vero C1008,< 800 nM
same,EC50,"[13]; Vero C1008, SARS, Vero E6 cells",< 800 nM
same,EC50,[14],< 400 nM
same,EC50,[15],> 88 µM
same,EC50,[16],880 nM
same,EC50,"[16]; Influenza A virus, H3N2, MDCK",960 nM
same,EC50,[17],1280 nM
same,EC50,[18],< 400 nM
same,EC50,[19],> 100 µM
same,EC90,[19],> 100 µM
same,EC50,[20],3.44 µM and 3.36 µM
same,EC50,[21],1280 nM and 1160 nM
same,EC50,[22],12.8 µM
same,EC50,[23],1360 nM
same,EC50,"[23]; Rhinovirus B, HRV14",1280 nM
same,EC50,[24],27.6 µM
same,EC50,"[24]; human respiratory syncytial virus, MA104",14 µM
same,selectivity index,[25],8
same,Bioavailability (versus i.p. delivery),[26],39-46%
same,Bioavailability (versus i.p. delivery),[26]; 30 mg/kg,65%
same,plasma T1/2,[26]; iv,2.2 h
same,calculated bioavailability (% F),"[27]; male, Sprague-Dawley (SD)",28%
same,tissue distribution,[27],well distributed into all tissues tested
same,body weight,[28],weight loss was observed
same,t1/2,[29]; 4 mg/kg,8.2 ± 1.7 h
same,t1/2,[29]; 20 mg/kg,4.7 ± 1.3 h
same,t1/2,"[29]; outbred, 128 mg/kg",5.1 ± 0.8 h
same,t1/2,"[29]; outbred, 512 mg/kg",4.2 ± 0.6 h
same,t1/2,[30]; 15 mg/kg,2.9 h
same,t1/2,[30]; 225 mg/kg,4.2 h
same,AUCinf,[30]; 750 mg/kg,228.9 nmol·h/mL
same,Brain Cmax,[30]; 750 mg/kg,18.8 nmol/g
same,t1/2,[30]; 750 mg/kg,5.2 h
same,AUC0->t,[31],228.6 pmol · h/M cells
same,antiviral activities,[32],antipestivirus and antihepacivirus activities
same,half-life,[33],112 min
same,Cmax,[34],113 ± 21.1 µM
same,half-life,[34],288 ± 60 min
same,CC50,[35],> 100 µM
same,CC50,[36],272 µM
same,AUC(0-inf),[37],42.5 µM·h
same,Cmax,[37],11.4 µM
same,tmax,[37],30 min
same,AUC(0-inf),[38],498 ± 40.4 µM·h
same,tmax,[38],1.4 ± 0.5 h
